Legend:
[1] = in vitro; details: human
Method: (§1) Another part of our study was to determine the influence of compounds 2f, 2i, 2j, and 2h on normal human blood lymphocytes (Figure 5). […] Thus, normal blood lymphocytes are blood cells, as well as cells of leukemia cell lines, therapeutic index (TI) of compounds 2f, 2h, and 2j was calculated as GI50 (normal blood lymphocyte)/GI50 (leukemia cell line) (Table 5).
(§2) Figure 5 Human lymphocyte viability after 48 h of 2f, 2i, 2j, 2h, and Ciminalum drug exposure was estimated by MTT assay.
(§3) The assay was performed by using 3-(4,5-dimethylthiazole-2-yl)- 2,5-diphenyltetrazolium bromide (MTT). Confluent cells, cultured for 24 h with 0.1, 1, 5, 10, 20, 30, and 100 µM concentrations of studied compounds in 24-well plates were washed with PBS. MTT was dissolved in PBS, and 25 µL were added to each well. Plates were incubated for 4 h at 37 °C in 5% CO2 in an incubator. The medium with MTT was removed, and 1 mL of DMSO was added to the attached cells. Furthermore, cells were incubated for 5–10 min in RT and then 10 µl of Sorensen buffer was added to each well. The absorbance of converted dye in living cells was measured at a wavelength of 570 nm. The cell viability of breast cancer cells, gastric cancer cells, and human colon cancer cells cultured in the presence of ligands was calculated as percent of control cells.
(§4) First, 20 mL of venous blood was taken from volunteers (Ethical protocol number 2, 27 January 2019) and collected in the presence of 200 μL of undiluted fresh heparin (1/100). Sterile blood was diluted 2 times with 0.9% NaCl under the sterile conditions. Isolation of lymphocytes was performed in a density gradient of ficol-verografin using the protocol of the manufacturer (Lympoprep, NYCOMED PHARMA AS, Oslo Norway). The resulting lymphocytes were resuspended in the RPMI-1640 medium and cultured for several days (up to 10 days). To separate the lymphocytes from the monocytes, cell suspension was left for 24 h. After 24 h of culture, monocytes were attached, while lymphocytes were transferred to a fresh Falcon tube (15 mL). To stimulate the proliferation of lymphocytes, they were cultured on CD3+ antibody-coated plastic plate in the RPMI-1640 medium supplemented with 20% FBS.

[2] = system: normal human blood lymphocytes; assay: in vitro
Method: as §1, §2, §3, §4

[3] = system: HL-60(TB)
[4] = system: U251; details: U251 (CNS Cancer), 48 h, SRB
[5] = system: HL-60(TB); assay: cells; details: Homo sapiens, HL-60, 48 h
[6] = system: 786-0; details: 786-0 (Renal Cancer), 48 h, SRB
[7] = system: SN12C; details: SN12C (Renal Cancer), 48 h, SRB
[8] = system: PC-3; details: PC-3 (Prostate Cancer), 48 h, SRB
[9] = system: DU-145; details: DU-145 (Prostate Cancer), 48 h, SRB
[10] = system: SR; assay: cells; details: Homo sapiens, 48 h; for CC50: read-out: LC50
[11] = system: NCI-H23; assay: cells; details: Homo sapiens, NCI-H23, 48 h; for CC50: read-out: LC50
[12] = system: SW-620; assay: cells; details: Homo sapiens, SW-620, 48 h; for CC50: read-out: LC50
[13] = system: 786-0; assay: cells; details: Homo sapiens, 786-0, 48 h; for CC50: read-out: LC50
[14] = system: SN12C; assay: cells; details: Homo sapiens, 48 h; for CC50: read-out: LC50
[15] = system: T-47D; assay: cells; details: Homo sapiens, T47D, 48 h; for CC50: read-out: LC50
[16] = system: NCI-322M; assay: NCI DTP 60 cell line screen, SRB; details: 48 h; for GI50 / CC50: Homo sapiens, NCI-322M; for CC50: read-out: LC50; for TGI: NCI-322M (Non-Small Cell Lung Cancer), SRB
[17] = system: HCT-15; assay: NCI DTP 60 cell line screen, SRB; details: for TGI: HCT-15 (Colon Cancer), 48 h, SRB; for GI50 / CC50: Homo sapiens, HCT-15, 48 h; for CC50: read-out: LC50
[18] = system: HT-29; assay: NCI DTP 60 cell line screen, SRB; details: for TGI: HT-29 (Colon Cancer), 48 h, SRB; for GI50 / CC50: Homo sapiens, HT-29, 48 h; for CC50: read-out: LC50
[19] = system: SNB-19; assay: NCI DTP 60 cell line screen, SRB; details: for GI50 / CC50: Homo sapiens, SNB-19, 48 h; for CC50: read-out: LC50; for TGI: SNB-19 (CNS Cancer), 48 h, SRB
[20] = system: M14; assay: NCI DTP 60 cell line screen, SRB; details: for GI50 / CC50: Homo sapiens, M14, 48 h; for CC50: read-out: LC50; for TGI: M14 (Melanoma), 48 h, SRB
[21] = system: IGROV1; assay: NCI DTP 60 cell line screen, SRB; details: for GI50 / CC50: Homo sapiens, IGROV-1, 48 h; for CC50: read-out: LC50; for TGI: IGROV1 (Ovarian Cancer), 48 h, SRB
[22] = system: OVCAR-8; assay: NCI DTP 60 cell line screen, SRB; details: for GI50 / CC50: Homo sapiens, OVCAR-8, 48 h; for CC50: read-out: LC50; for TGI: OVCAR-8 (Ovarian Cancer), 48 h, SRB
[23] = system: CCRF-CEM; assay: NCI DTP 60 cell line screen, SRB; details: 48 h
[24] = system: HS 578T; assay: NCI DTP 60 cell line screen, SRB; details: 48 h

Structure (SMILES): O=C1/C(=C/C(Cl)=C/c2ccc([N+](=O)[O-])cc2)SC(=S)N1c1ccc(O)cc1 [Compound 2f, 5-[(Z,2Z)-2-Chloro-3-(4-nitrophenyl)-2-propenylidene]-3-(4-hydroxyphenyl)-2-thioxo-4-thiazolidinone]
- GI50 at 48 h [1]: > 100 µM
- toxicity toward normal human blood lymphocytes [2]: low toxicity
- TI (Therapeutic Index) ([3]; GI50 (normal blood lymphocyte)/GI50 (HL-60(TB))): >206.19
- TGI ([3]; HL-60(TB) (Leukemia), 48 h, SRB): 4.48 µM
- TGI [4]: 3.06 µM
- GI50 [5]: 485 nM
- CC50 ([5]; read-out: LC50): > 100 µM
- TGI [6]: 3.83 µM
- TGI [7]: 4.41 µM
- TGI [8]: 84.8 µM
- TGI [9]: 5.81 µM
- GI50 [10]: 10 nM
- CC50 [10]: > 100 µM
- GI50 [11]: 1480 nM
- CC50 [11]: 6.52 µM
- GI50 [12]: 37 nM
- CC50 [12]: > 100 µM
- GI50 [13]: 2040 nM
- CC50 [13]: 7.18 µM
- GI50 [14]: 1980 nM
- CC50 [14]: > 100 µM
- GI50 [15]: 1550 nM
- CC50 [15]: > 100 µM
- GI50 [16]: 2490 nM
- CC50 [16]: > 100 µM
- TGI [16]: 9.02 µM
- TGI [17]: > 100 µM
- GI50 [17]: 409 nM
- CC50 [17]: > 100 µM
- TGI [18]: > 100 µM
- GI50 [18]: 2140 nM
- CC50 [18]: > 100 µM
- GI50 [19]: 10 µM
- CC50 [19]: 97.5 µM
- TGI [19]: 32.0 µM
- GI50 [20]: 1900 nM
- CC50 [20]: 7.32 µM
- TGI [20]: 3.73 µM
- GI50 [21]: 1630 nM
- CC50 [21]: > 100 µM
- TGI [21]: 6.13 µM
- GI50 [22]: 1140 nM
- CC50 [22]: > 100 µM
- TGI [22]: 22.9 µM

Structure (SMILES): O=C(O)C(Cc1ccccc1)N1C(=O)/C(=C/C(Cl)=C/c2ccc([N+](=O)[O-])cc2)SC1=S (stereo not drawn) [Compound 2j, 2-{5-[(Z,2Z)-2-Chloro-3-(4-nitrophenyl)-2-propenylidene]-4-oxo-2-thioxothiazolidin-3-yl}-3-phenylpropanoic acid]
- GI50 at 48 h [1]: 49 µM
- toxicity toward normal human blood lymphocytes [2]: low toxicity
- TGI [4]: 3.52 µM
- TGI [6]: 5.01 µM
- TGI [7]: > 100 µM
- TGI [8]: 7.98 µM
- TGI [9]: 4.56 µM
- GI50 [10]: 2450 nM
- CC50 [10]: > 100 µM
- GI50 [11]: 2130 nM
- CC50 [11]: > 100 µM
- GI50 [12]: 2100 nM
- CC50 [12]: > 100 µM
- GI50 [13]: 2100 nM
- CC50 [13]: > 100 µM
- GI50 [14]: 2840 nM
- CC50 [14]: > 100 µM
- GI50 [15]: 1500 nM
- CC50 [15]: > 100 µM
- TGI ([23]; CCRF-CEM (Leukemia), SRB): > 100 µM
- GI50 ([23]; Homo sapiens, CCRF-CEM): 2920 nM
- CC50 ([23]; Homo sapiens, CCRF-CEM, read-out: LC50): > 100 µM
- GI50 [16]: > 100000 nM
- CC50 [16]: > 100 µM
- TGI [16]: >100/>100/>100 μM
- TGI [17]: 4.58 µM
- GI50 [17]: 1920 nM
- CC50 [17]: > 100 µM
- TGI [18]: 8.47 µM
- GI50 [18]: 2840 nM
- CC50 [18]: > 100 µM
- GI50 [19]: 1.85 µM
- CC50 [19]: > 100 µM
- TGI [19]: > 100 µM
- GI50 [20]: 2530 nM
- CC50 [20]: > 100 µM
- TGI [20]: > 100 µM
- GI50 [21]: 2990 nM
- CC50 [21]: > 100 µM
- TGI [21]: > 100 µM
- GI50 [22]: 3130 nM
- CC50 [22]: > 100 µM
- TGI [22]: > 100 µM
- TGI ([24]; HS 578T (Breast Cancer), SRB): > 100 µM
- GI50 ([24]; Homo sapiens, Hs-578T): 4.37 µM
- CC50 ([24]; Homo sapiens, Hs-578T, read-out: LC50): > 100 µM

Source: paper PMC8161026, “Synthesis and Anticancer Activity Evaluation of 5-[2-Chloro-3-(4-nitrophenyl)-2-propenylidene]-4-thiazolidinones” (Molecules, 2021)
